# pIC50: −log10 of the molar value.
# Biological target: human recombinant USP30 (Homo sapiens (Human), UniProt Q70CQ3)
# Assay: Ubiquitin-Rhodamine 110 Assay for USP30 Activity
# Type: biochemical
# Conditions: 0.2 nM USP30, 25 nM Ub-Rh110, 30 min preincubation
# Description: The assay was performed in a final volume of 9 μL in assay buffer containing 20 mM Tris-HCl (pH 8.0, (IM Tris-HCl, pH 8.0 solution; Corning 46-031-CM)), 1 mM GSH (L-glutathione reduced, Sigma-Aldrich, G4251-100G), 0.03% BGG (0.22 μM filtered, Sigma, G7516-25G), and 0.01% Triton X-100 (Sigma, T9284-10L). Nanoliter quantities of 10-point, 3-fold serial dilution in DMSO were pre-dispensed into 1536 assay plates (Corning, #3724BC) for a final test concentration of 25 μM to 1.3 nM, top to lowest dose, respectively. Concentration and incubation times were optimized for the maximal signal-to-background while maintaining initial velocity conditions at a fixed substrate concentration. The final concentration of USP30 (human recombinant USP30, Boston Biochem, cat. #E-582) in the assay was 0.2 nM. Final substrate (Ub-Rh110; Ubiquitin-Rhodamine 110, UbiQ-126) concentration was 25 nM with [Ub-Rh110]<<Km. 3 μL of 2×USP30 was added to assay plates (pre-stamped with compound), preincubated for 30 minutes and then treated with 3 μL of 2×Ub-Rh110. Plates were incubated for 30 minutes at room temperature before addition of 3 μL of stop solution (final concentration of 10 mM citric acid (Sigma, 251275-500G)). Fluorescence was read on the Envision (excitation at 485 nm and emission at 535 nm; Perkin Elmer) or on the PheraSTAR (excitation at 485 nm and emission at 535 nm; BMG Labtech) fluorescence reader.
# For all assay formats, data were reported as percent inhibition compared with control wells based on the following equation: % inh=1−((FLU−AveLow)/(AveHigh−AveLow)) where FLU=measured Fluorescence, AveLow=average Fluorescence of no enzyme control (n=16), and AveHigh=average Fluorescence of DMSO control (n=16). IC50 values were determined by curve fitting of the standard 4 parameter logistic fitting algorithm included in the Activity Base software package: IDBS XE Designer Model205. Data is fitted using the Levenburg Marquardt algorithm.
# Sequence of human recombinant USP30 (Q70CQ3 whole entry): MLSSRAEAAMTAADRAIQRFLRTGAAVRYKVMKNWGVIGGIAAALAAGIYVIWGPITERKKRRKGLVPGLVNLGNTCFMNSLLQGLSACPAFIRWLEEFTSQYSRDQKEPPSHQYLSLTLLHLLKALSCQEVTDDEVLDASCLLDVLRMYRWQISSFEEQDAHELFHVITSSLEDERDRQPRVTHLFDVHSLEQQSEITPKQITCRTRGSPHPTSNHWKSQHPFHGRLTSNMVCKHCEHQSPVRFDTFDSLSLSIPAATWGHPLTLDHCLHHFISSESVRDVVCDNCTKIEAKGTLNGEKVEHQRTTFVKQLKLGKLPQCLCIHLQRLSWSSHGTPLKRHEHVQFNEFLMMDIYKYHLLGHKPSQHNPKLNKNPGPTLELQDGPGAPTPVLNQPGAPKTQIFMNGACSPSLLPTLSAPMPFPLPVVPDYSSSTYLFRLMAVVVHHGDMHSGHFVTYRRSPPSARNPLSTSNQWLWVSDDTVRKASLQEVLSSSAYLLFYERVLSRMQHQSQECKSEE
row,Compound,pIC50
1,"N#CN1C[C@@H]2C[C@H]1CCN2C(=O)c1cc(-c2ccccc2Oc2ccccc2)[nH]n1 (single isomer, unassigned) [Compound 1-a]",6.00 to 7.00
2,"N#CN1C[C@H]2C[C@@H]1CCN2C(=O)c1cc(-c2ccccc2Oc2ccccc2)[nH]n1 (single isomer, unassigned) [Compound 1b]",> 7.00
3,"N#CN1CC2CCC1C2NC(=O)c1cc(-c2ccccc2Oc2ccccc2)[nH]n1 (single isomer, unassigned) [Compound 2-a]",> 7.00
4,"N#CN1CC2CCC1C2NC(=O)c1cc(-c2ccccc2Oc2ccccc2)[nH]n1 (single isomer, unassigned) [Compound 2-b]",< 6.00
5,"N#CN1C[C@H]2C[C@@]2(NC(=O)c2cc(-c3ccccc3Oc3ccccc3)[nH]n2)C1 (single isomer, unassigned) [Compound 3-a]",6.00 to 7.00
6,"N#CN1C[C@@H]2C[C@]2(NC(=O)c2cc(-c3ccccc3Oc3ccccc3)[nH]n2)C1 (single isomer, unassigned) [Compound 3-b]",> 7.00
7,"N#CN1C[C@@H]2C[C@H]1CN2C(=O)c1cc(-c2ccccc2Oc2ccccc2)[nH]n1 (single isomer, unassigned) [Compound 4-a]",6.00 to 7.00
8,"N#CN1C[C@H]2C[C@@H]1CN2C(=O)c1cc(-c2ccccc2Oc2ccccc2)[nH]n1 (single isomer, unassigned) [Compound 4-b]",6.00 to 7.00
9,"N#CN1C[C@@H](NC(=O)c2cc(-c3ccccc3Oc3ccccc3)[nH]n2)C2(CC2)C1 (single isomer, unassigned) [Compound 5-a]",> 7.00
10,"N#CN1C[C@H](NC(=O)c2cc(-c3ccccc3Oc3ccccc3)[nH]n2)C2(CC2)C1 (single isomer, unassigned) [Compound 5-b]",6.00 to 7.00
11,"N#CN1C[C@H]2C[C@@H]1[C@H]2NC(=O)c1cc(-c2ccccc2Oc2ccccc2)[nH]n1 (single isomer, unassigned) [Compound 8-a]",6.00 to 7.00
12,"N#CN1C[C@@H]2C[C@H]1[C@@H]2NC(=O)c1cc(-c2ccccc2Oc2ccccc2)[nH]n1 (single isomer, unassigned) [Compound 8-b]",6.00 to 7.00
13,"N#CN1C[C@@H](NC(=O)c2cc(-c3ccccc3Oc3ccccc3)[nH]n2)CC12COC2 (single isomer, unassigned) [Compound 9-a]",< 6.00
14,"N#CN1C[C@H](NC(=O)c2cc(-c3ccccc3Oc3ccccc3)[nH]n2)CC12COC2 (single isomer, unassigned) [Compound 9-b]",< 6.00
15,"N#CN1C[C@@H]2CCC[C@]2(NC(=O)c2cc(-c3ccccc3Oc3ccccc3)[nH]n2)C1 (single isomer, unassigned) [Compound 20-a]",> 7.00
16,"N#CN1C[C@H]2CCC[C@@]2(NC(=O)c2cc(-c3ccccc3Oc3ccccc3)[nH]n2)C1 (single isomer, unassigned) [Compound 20-b]",> 7.00
17,"N#CN1C[C@@H]2CC[C@]2(NC(=O)c2cc(-c3ccccc3Oc3ccccc3)[nH]n2)C1 (stereo in doubt) [Compound 6-a, N-((1R,5S)-3-cyano-3-azabicyclo[3.2.0]heptan-1-yl)-5-(2-phenoxyphenyl)-1H-pyrazole-3-carboxamide]",> 7.00
18,"N#CN1C[C@H]2CC[C@@]2(NC(=O)c2cc(-c3ccccc3Oc3ccccc3)[nH]n2)C1 (stereo in doubt) [Compound 6-b, N-((1S,5R)-3-cyano-3-azabicyclo[3.2.0]heptan-1-yl)-5-(2-phenoxyphenyl)-1H-pyrazole-3-carboxamide]",6.00 to 7.00

# Reference: US11814386B2, “Fused pyrrolines which act as ubiquitin-specific protease 30 (USP30) inhibitors” (FORMA Therapeutics, Inc., priority 2018, dated 2023)
